Test results reported in publication PMC10999543, “Identification of kinase modulators as host-directed therapeutics against intracellular methicillin-resistant Staphylococcus aureus” (Frontiers in Cellular and Infection Microbiology, 2024).
Where two headings read alike, the source gives them in different places.

Columns and labels:
intracellular MRSA = assay type: cell-based, Staphylococcus aureus; details: for z-scoreMRSA+ mean: mean of 3 replicates; for z-scoreMRSA+ rep 1 / %GFP+ rep 1: replicate 1; for z-scoreMRSA+ rep 2 / %GFP+ rep 2: replicate 2; for z-scoreMRSA+ rep 3 / %GFP+ rep 3: replicate 3
Method in brief: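 HeLa, MRSA-GFP at MOI ~6.8, 1 h infection; gentamicin 30 µg/ml for 15 min; inhibitor plus gentamicin 5 µg/ml overnight, 37°C/5% CO2; triplicate plates; FACS %GFP+ and cell count; hit = z ≤ -2 MRSA+, z ≥ -3 count.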

HeLa cells = assay: Compound screen by flow cytometry: HeLa cell count as surrogate readout of cell viability (z-scoreHeLa); assay type: cell-based, human
Method in brief: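 HeLa cells were infected with GFP-MRSA (mean MOI 6.8 ± 4.6) for 1 h, and extracellular bacteria were killed with 30 µg/ml gentamicin. Cells were then incubated overnight with kinase inhibitors in 5 µg/ml gentamicin, in triplicate against DMSO controls. Flow-cytometric cell count served as a viability surrogate, expressed as a plate z-score.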

[1] = PKIS compound screen, Yes/No call
[2] = PKIS compound screen, Yes/No call (effect without cell death)
[3] = PKIS compounds raw data, MRSA-infected HeLa cells
[4] = PKIS compound screen, mean of 3 replicates
[5] = PKIS compound screen, replicate 1
[6] = PKIS compound screen, replicate 2
[7] = PKIS compound screen, replicate 3
[8] = PKIS compounds raw data, replicate 1, HeLa cell count
[9] = PKIS compounds raw data, replicate 2, HeLa cell count
[10] = PKIS compounds raw data, replicate 3, HeLa cell count
[11] = PKIS compound screen raw data, MRSA-infected HeLa cells
[12] = Yes/No: effect without cell death
[13] = compound screen, MRSA-infected HeLa cells
[14] = PKIS compound screen raw data, HeLa cell count, replicate 1
[15] = PKIS compound screen raw data, HeLa cell count, replicate 2
[16] = PKIS compound screen raw data, HeLa cell count, replicate 3
[17] = compound screen, HeLa cell count, mean of 3 replicates
[18] = compound screen, HeLa cell count, replicate 1
[19] = compound screen, HeLa cell count, replicate 2
[20] = compound screen, HeLa cell count, replicate 3
[21] = PKIS compound screen, MRSA-infected HeLa cells

Row | Molecule | effect (intracellular MRSA; [1]) | hit (intracellular MRSA; [2]) | z-scoreMRSA+ mean (intracellular MRSA; PKIS compound screen) | z-scoreMRSA+ rep 1 (intracellular MRSA; PKIS compound screen) | z-scoreMRSA+ rep 2 (intracellular MRSA; PKIS compound screen) | z-scoreMRSA+ rep 3 (intracellular MRSA; PKIS compound screen) | %GFP+ rep 1 (intracellular MRSA; [3]) [%] | %GFP+ rep 2 (intracellular MRSA; [3]) [%] | %GFP+ rep 3 (intracellular MRSA; [3]) [%] | cell death (HeLa cells; [1]) | z-scoreHeLa mean (HeLa cells; [4]) | z-scoreHeLa rep 1 (HeLa cells; [5]) | z-scoreHeLa rep 2 (HeLa cells; [6]) | z-scoreHeLa rep 3 (HeLa cells; [7]) | cell count rep 1 (HeLa cells; [8]) | cell count rep 2 (HeLa cells; [9]) | cell count rep 3 (HeLa cells; [10]) | effect (intracellular MRSA; Yes/No call from z-scoreMRSA+) | hit (intracellular MRSA; [12]) | z-scoreMRSA+ mean (intracellular MRSA; [13]) | other results
1 | Cn1cc(-c2ccc3c(c2)CCN3C(=O)Cc2ccccc2Cl)c2c(N)ncnc21 [GSK2608885A] | No | No | 0.34 | 0.11 | 0.57 | 0.34 | 27.6 | 29.0 | 29.1 | No | -0.08 | -0.13 | 0.00891 | -0.13 | 5830 | 6021 | 5398 | – | – | – | –
2 | c1ccc(-c2n[nH]cc2-c2ccnc(-c3ccc(CNC4CCOCC4)cc3)c2)nc1 [GW709213X] | – | – | – | – | – | – | – | – | – | – | – | – | – | – | – | – | – | No | No | 0.80 | %GFP+ rep 1 (intracellular MRSA; [11]): 20.2%; %GFP+ rep 2 (intracellular MRSA; [11]): 23.4%; %GFP+ rep 3 (intracellular MRSA; [11]): 24.6%; z-scoreMRSA+ rep 1 (intracellular MRSA; [13]): 0.38; z-scoreMRSA+ rep 2 (intracellular MRSA; [13]): 1.09; z-scoreMRSA+ rep 3 (intracellular MRSA; [13]): 0.92; cell count rep 1 (HeLa cells; [14]): 27129; cell count rep 2 (HeLa cells; [15]): 33773; cell count rep 3 (HeLa cells; [16]): 22823; cell death (HeLa cells; Yes/No call from z-scoreHeLa): No; z-scoreHeLa mean (HeLa cells; [17]): 0.57; z-scoreHeLa rep 1 (HeLa cells; [18]): -0.52; z-scoreHeLa rep 2 (HeLa cells; [19]): 1.46; z-scoreHeLa rep 3 (HeLa cells; [20]): 0.76
3 | c1ccc(-c2ccc3c(Nc4ccc5[nH]ccc5c4)ccnc3c2)nc1 [GW440138A] | No | No | 1.90 | 1.55 | 2.03 | 2.14 | 35.0 | 36.6 | 38.8 | No | 1.19 | 0.89 | 1.20 | 1.48 | 7521 | 7813 | 7928 | – | – | – | –
4 | SB-675259-M | No | No | -0.33 | -0.0227 | 0.37 | -1.33 | 13.1 | 14.6 | 11.4 | – | – | – | – | – | – | – | – | – | – | – | cell count rep 1 (HeLa cells): 2153; cell count rep 2 (HeLa cells): 1700; cell count rep 3 (HeLa cells): 5596; cell death (HeLa cells): No; z-scoreHeLa mean (HeLa cells): -1.66; z-scoreHeLa rep 1 (HeLa cells): -2.37; z-scoreHeLa rep 2 (HeLa cells): -1.94; z-scoreHeLa rep 3 (HeLa cells): -0.65
5 | CCn1c(-c2nonc2N)nc2c(C#CC(C)(C)O)nc(OCCNC)cc21 [GSK949675A] | No | No | 0.28 | 0.59 | 0.84 | -0.59 | 15.0 | 16.0 | 13.9 | No | 1.02 | 0.13 | 1.22 | 1.70 | 4918 | 5879 | 10520 | – | – | – | –
6 | Cc1n[nH]c2cc(Nc3ccnc(Nc4cccc(CN5CCOCC5)c4)n3)ccc12 [GW682569X] | – | – | – | – | – | – | 15.4 | 15.0 | 13.7 | – | – | – | – | – | 2071 | 1754 | 4807 | No | No | 0.19 | z-scoreMRSA+ rep 1 (intracellular MRSA; [13]): 0.71; z-scoreMRSA+ rep 2 (intracellular MRSA; [13]): 0.50; z-scoreMRSA+ rep 3 (intracellular MRSA; [13]): -0.65; cell death (HeLa cells; Yes/No call from z-scoreHeLa): No; z-scoreHeLa mean (HeLa cells; [17]): -1.79; z-scoreHeLa rep 1 (HeLa cells; [18]): -2.45; z-scoreHeLa rep 2 (HeLa cells; [19]): -1.90; z-scoreHeLa rep 3 (HeLa cells; [20]): -1.03
7 | COc1cccc(-n2ncc3c(N/N=C/c4ccncc4)ncnc32)c1 [GW784752X] | No | No | -0.71 | -0.44 | -0.63 | -1.06 | 11.8 | 11.6 | 12.3 | No | -0.20 | -0.77 | -0.44 | 0.60 | 3928 | 3683 | 8225 | – | – | – | –
8 | Nc1ncc(-c2cccc(S(N)(=O)=O)c2)c2scc(-c3ccc(F)c(Cl)c3)c12 [GW856804X] | – | – | – | – | – | – | 11.3 | 12.3 | 12.2 | – | – | – | – | – | 4238 | 7246 | 7870 | No | No | -0.70 | z-scoreMRSA+ rep 1 (intracellular MRSA; [13]): -0.60; z-scoreMRSA+ rep 2 (intracellular MRSA; [13]): -0.40; z-scoreMRSA+ rep 3 (intracellular MRSA; [13]): -1.09; cell death (HeLa cells; Yes/No call from z-scoreHeLa): No; z-scoreHeLa mean (HeLa cells; [17]): 0.73; z-scoreHeLa rep 1 (HeLa cells; [18]): -0.49; z-scoreHeLa rep 2 (HeLa cells; [19]): 2.25; z-scoreHeLa rep 3 (HeLa cells; [20]): 0.43
9 | Cc1c2ccc(N(C)c3ccnc(Nc4cccc(S(N)(=O)=O)c4)n3)cc2nn1C [GW771127A] | – | No | – | – | – | – | – | – | – | – | – | – | – | – | – | – | – | – | – | – | %GFP+ rep 1 (intracellular MRSA; [11]): 14.2%; %GFP+ rep 2 (intracellular MRSA; [11]): 13.8%; %GFP+ rep 3 (intracellular MRSA; [11]): 15.3%; z-scoreMRSA+ mean (intracellular MRSA; [21]): -1.32; z-scoreMRSA+ rep 1 (intracellular MRSA; [21]): -1.16; z-scoreMRSA+ rep 2 (intracellular MRSA; [21]): -1.42; z-scoreMRSA+ rep 3 (intracellular MRSA; [21]): -1.37; effect (intracellular MRSA; PKIS compound screen, Yes/No call on z-scoreMRSA+): No; cell count rep 1 (HeLa cells; [14]): 10020; cell count rep 2 (HeLa cells; [15]): 29599; cell count rep 3 (HeLa cells; [16]): 33795; z-scoreHeLa mean (HeLa cells; PKIS compound screen, HeLa cell count, mean of 3 replicates): -1.19; z-scoreHeLa rep 1 (HeLa cells; PKIS compound screen, HeLa cell count, replicate 1): -1.53; z-scoreHeLa rep 2 (HeLa cells; PKIS compound screen, HeLa cell count, replicate 2): -0.97; z-scoreHeLa rep 3 (HeLa cells; PKIS compound screen, HeLa cell count, replicate 3): -1.07; cell death (HeLa cells; PKIS compound screen, Yes/No call on z-scoreHeLa): No
